The record followed here is US20180180626A1, “A METHOD FOR DEVELOPMENT OF RECOMBINANT PROTEINS WITH FINGERPRINT LIKE SIMILARITY TO THE REFERENCE PRODUCT” (STC Biologics, Inc., priority 2014, published 2018).

One experiment deals with fucosyl transferase. Kind of experiment: 2AB glycan analysis of trastuzumab biosimilar isolated from CHO cells treated with 2F-Peracetyl-Fucose (FTI). The experiment is classed as cell-based, Chinese Hamster. Here is the method: Chromatography by HPLC or UPLC is another powerful method to analyze recombinant proteins. For example, glycan species can he quantitated using a fluorescent 2AB labeling method. In this method, glycans are first removed from the protein by digestion with N-glycanase and then a fluorescent label is added to each glycan. The glycans can then be resolved using HILIC based chromatography and quantitated by measuring relative area under the curve. For oxidation quantitation an HIC based method can be used.
To obtain a recipe for production of a biosimilar with a similar glycosylation pattern to the original Herceptin®, CHO cells engineered to express the recombinant protein with an amino acid sequence identical to trastuzumab were first grown in the growth media without any inhibitors to establish a baseline. The glycan Species were analyzed using 2AB glycan method. It was observed that Peak 2 (G0) and Peak 6 (G1), and Peak 7 (mannose-5 and G1′) modifications were lower for the biosimilar than their target profile.
G0, G1 and G1′ modifications are non-fucosylated modifications and are controlled by a host protein called fucosyl transferase and the mannose-5 modification is controlled by the host protein known as α-mannosidase 1. Fucosyl transferase can be inhibited by a variety of fucosyltransferase inhibitors shown in FIG. 2, α-mannosidase 1 can be inhibited by kifunensine.
Briefly to obtain trastuzumab with modifications in the target range, cells were placed in growth media and treated with 2F-Peracetyl-Fucose (FTI) on day 7 at different concentrations (20 μM. 10 μM, 5 μM, 1 μM, 0.1 μM) to identify optimal drug concentration. On day 12 cells were harvested and the trastuzumab biosimilar isolated. […] FTI concentrations used to reach target profile are cell specific so it is expected that different concentrations of the FTI or other modulators would be required when a starting cell line is different from the one described in this example.
Different treatment methods such as Method 2 can be used to obtain target profile. For example, FTI can be added on a daily basis starting on day 5 (Table 3, Method 2) rather than on Day 7.

The test system of another experiment is α-mannosidase I. Kind of experiment: 2AB glycan analysis of trastuzumab biosimilar isolated from CHO cells treated with kifunensine (KFI), with FTI. The experiment is classed as cell-based, Chinese Hamster. As to conditions: treated on Day 7; tested about 0.001 ng/ml-100 ng/ml. Here is the method:
Chromatography by HPLC or UPLC is another powerful method to analyze recombinant proteins. For example, glycan species can he quantitated using a fluorescent 2AB labeling method. In this method, glycans are first removed from the protein by digestion with N-glycanase and then a fluorescent label is added to each glycan. The glycans can then be resolved using HILIC based chromatography and quantitated by measuring relative area under the curve. For oxidation quantitation an HIC based method can be used. To obtain a recipe for production of a biosimilar with a similar glycosylation pattern to the original Herceptin®, CHO cells engineered to express the recombinant protein with an amino acid sequence identical to trastuzumab were first grown in the growth media without any inhibitors to establish a baseline. The glycan Species were analyzed using 2AB glycan method. It was observed that Peak 2 (G0) and Peak 6 (G1), and Peak 7 (mannose-5 and G1′) modifications were lower for the biosimilar than their target profile. G0, G1 and G1′ modifications are non-fucosylated modifications and are controlled by a host protein called fucosyl transferase and the mannose-5 modification is controlled by the host protein known as α-mannosidase 1. Fucosyl transferase can be inhibited by a variety of fucosyltransferase inhibitors shown in FIG. 2, α-mannosidase 1 can be inhibited by kifunensine. […]

Where [1] appears, read: Method 2 - […]-[…] FTI every day starting at day 5.

`CC(=O)OC1O[C@@H](C)[C@@H](OC(C)=O)[C@@H](OC(C)=O)[C@@H]1F` (some centres unmarked) [FTI, 2F-Peracetyl-Fucose]: the “G0, G1 and G1′ levels versus target PTM range” value in the experiment with fucosyl transferase (10 μM FTI on day 7, harvest day 12) is listed as “matched the target PTM range”. Besides, the “G0, G1 and G1′ levels versus target PTM range” value in the experiment on fucosyl transferase (20 μM FTI on day 7, harvest day 12) was “increase of G0, G1 and G1′ PTMs above that of target PTMs”. In addition, the “modifications versus target range” value in the experiment on fucosyl transferase (FTI at concentrations lower than 8 μM) is “outside the target range”. Further, in the experiment with fucosyl transferase (Method 1 - 10 μM FTI - Day 7), the “Glycan Species Peak 2-G0” value stood at 4%, the “Glycan Species Peak 3” value is 1.5%, the “Glycan Species Peak 4-G0F” value stood at 44% and the “Glycan Species Peak 5” value is recorded as 0.8%. Also, in the experiment on fucosyl transferase (Method 1 - 10 μM FTI - Day 7), the “Glycan Species Peak 6-G1” value is reported as 1.8%, the “Glycan Species Peak 7- G1F/mannose 5” value is 1.2%, the “Glycan Species Peak 8- (1,6)G1F” value was determined as 26% and the “Glycan Species Peak 9 (1,3)G1F” value was 11%. In the experiment with fucosyl transferase (Method 1 - 10 μM FTI - Day 7), the “Glycan Species Peak 10 G2F” value was determined as 6.5%, the “Glycan Species Peak 11” value is given as 0.2%, the “Glycan Species Peak 12” value is 0.25% and the “Glycan Species Peak 13” value was determined as 0.2%. Further, in the experiment with fucosyl transferase (Method 1 - 10 μM FTI - Day 7), the “Glycan Species Peak 14” value is on record as 0.2% and the “Glycan Species Peak 15” value is recorded as 0.2%. In addition, in the experiment with fucosyl transferase (Method 1 - 10 μM FTI - Day 7, trastuzumab biosimilar, harvest day 12), the “Glycan Species Peak 1” value was found to be 1.5%. Further, in the experiment with fucosyl transferase (setting [1]), the “Glycan Species Peak 4-G0F” value is 44%, the “Glycan Species Peak 8- (1,6)G1F” value came out at 26%, the “Glycan Species Peak 9 (1,3)G1F” value is reported as 11% and the “Glycan Species Peak 10 G2F” value was 6.5%.

Consider `O=C1N[C@@H]2[C@@H](O)[C@@H](O)[C@H](O)[C@@H](CO)N2C1=O` [kifunensine], for which, in the experiment with α-mannosidase I, the “ideal concentration for optimization of the mannose species” value is 1 to 10 ng/mL.
